Results taken from EP4722207A1, “OXOISOINDOLINYL-SUBSTITUTED TETRAHYDROPYRIMIDINEDIONE DERIVATIVE AND USE THEREOF” (Gluetacs Therapeutics (Shanghai) Co., Ltd., priority 2023, dated 2024).

Experiments:
Assay type in all cases: cell-based
WEE1 = target: T1, WEE1 (Homo sapiens, UniProt P30291+Q96SW2); assay: Western-blot assay, substrate protein degradation in hPBMCs: WEE1; conditions: for substrate protein remaining % WEE1: 24 hours of compound treatment, 50 nM and 500 nM; for WEE1 substrate protein remaining %: compounds at 50 nM and 500 nM, 24 hours
T1 construct: effects of the compounds of the present disclosure on the expression of target proteins in cells; endogenous in cells; host or cells: human PBMCs (hPBMCs)
T1 sequence (P30291 whole entry): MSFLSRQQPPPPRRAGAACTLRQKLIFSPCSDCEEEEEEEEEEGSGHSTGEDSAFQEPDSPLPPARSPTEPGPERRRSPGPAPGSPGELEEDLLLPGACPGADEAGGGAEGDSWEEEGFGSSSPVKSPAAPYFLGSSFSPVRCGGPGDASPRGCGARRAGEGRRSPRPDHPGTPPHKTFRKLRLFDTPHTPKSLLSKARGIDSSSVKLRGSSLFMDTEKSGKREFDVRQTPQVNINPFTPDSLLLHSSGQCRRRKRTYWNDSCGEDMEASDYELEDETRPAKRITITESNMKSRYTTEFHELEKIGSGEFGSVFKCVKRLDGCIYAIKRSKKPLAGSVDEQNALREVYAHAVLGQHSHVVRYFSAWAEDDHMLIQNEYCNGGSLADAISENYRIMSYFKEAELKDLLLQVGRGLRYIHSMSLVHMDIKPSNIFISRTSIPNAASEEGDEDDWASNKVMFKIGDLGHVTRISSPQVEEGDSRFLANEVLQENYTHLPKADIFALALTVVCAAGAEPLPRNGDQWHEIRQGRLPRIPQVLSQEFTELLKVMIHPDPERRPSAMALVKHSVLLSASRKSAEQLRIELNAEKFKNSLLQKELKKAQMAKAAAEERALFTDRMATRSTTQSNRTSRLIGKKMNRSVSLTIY
T1 sequence (Q96SW2 whole entry): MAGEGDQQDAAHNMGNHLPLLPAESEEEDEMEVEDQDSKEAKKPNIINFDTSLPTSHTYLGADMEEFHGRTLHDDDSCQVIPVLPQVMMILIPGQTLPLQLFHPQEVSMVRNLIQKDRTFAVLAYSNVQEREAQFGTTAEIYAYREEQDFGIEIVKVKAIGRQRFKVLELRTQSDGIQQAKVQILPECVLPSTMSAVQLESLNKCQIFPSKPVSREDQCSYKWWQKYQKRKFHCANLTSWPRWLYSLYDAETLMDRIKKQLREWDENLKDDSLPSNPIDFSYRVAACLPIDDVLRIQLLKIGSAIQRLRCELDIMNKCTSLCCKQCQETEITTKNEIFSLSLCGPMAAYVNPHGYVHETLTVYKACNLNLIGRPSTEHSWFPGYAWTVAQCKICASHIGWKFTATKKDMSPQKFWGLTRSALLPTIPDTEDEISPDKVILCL
T1 sequence (Q16531 whole entry partner): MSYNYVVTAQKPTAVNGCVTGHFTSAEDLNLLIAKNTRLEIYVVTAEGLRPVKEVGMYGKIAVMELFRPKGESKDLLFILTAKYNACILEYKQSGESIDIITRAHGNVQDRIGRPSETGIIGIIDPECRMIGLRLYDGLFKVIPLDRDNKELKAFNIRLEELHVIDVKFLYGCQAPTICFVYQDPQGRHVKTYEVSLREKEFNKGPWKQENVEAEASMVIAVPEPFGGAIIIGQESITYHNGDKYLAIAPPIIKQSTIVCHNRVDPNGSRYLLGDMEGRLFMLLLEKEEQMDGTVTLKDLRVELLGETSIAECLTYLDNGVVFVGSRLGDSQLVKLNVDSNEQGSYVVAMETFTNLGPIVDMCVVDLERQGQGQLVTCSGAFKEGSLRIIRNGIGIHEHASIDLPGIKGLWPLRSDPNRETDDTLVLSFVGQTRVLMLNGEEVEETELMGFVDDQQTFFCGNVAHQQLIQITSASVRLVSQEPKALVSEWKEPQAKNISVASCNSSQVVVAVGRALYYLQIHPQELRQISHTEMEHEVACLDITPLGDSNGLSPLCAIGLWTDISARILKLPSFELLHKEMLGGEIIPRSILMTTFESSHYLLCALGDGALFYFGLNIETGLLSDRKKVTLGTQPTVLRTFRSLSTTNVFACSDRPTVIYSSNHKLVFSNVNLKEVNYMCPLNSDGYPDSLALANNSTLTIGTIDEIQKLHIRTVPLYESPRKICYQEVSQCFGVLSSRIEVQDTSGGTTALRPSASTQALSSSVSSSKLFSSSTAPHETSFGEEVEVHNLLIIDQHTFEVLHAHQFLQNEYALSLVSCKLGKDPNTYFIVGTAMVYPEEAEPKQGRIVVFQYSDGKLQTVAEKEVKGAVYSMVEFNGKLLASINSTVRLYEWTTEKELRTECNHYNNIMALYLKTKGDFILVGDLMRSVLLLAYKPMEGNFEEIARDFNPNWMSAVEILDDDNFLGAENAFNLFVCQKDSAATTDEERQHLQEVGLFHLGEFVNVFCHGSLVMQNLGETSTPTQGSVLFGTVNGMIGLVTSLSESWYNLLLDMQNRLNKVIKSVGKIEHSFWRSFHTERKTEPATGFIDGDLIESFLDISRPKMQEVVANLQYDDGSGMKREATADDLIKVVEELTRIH

IKZF1 = target: T2, IKZF1 (Homo sapiens, UniProt Q13422+Q96SW2); assay: Western-blot assay, substrate protein degradation in hPBMCs: IKZF1; conditions: for substrate protein remaining % IKZF1: 24 hours of compound treatment, 50 nM and 500 nM; for IKZF1 substrate protein remaining %: compounds at 50 nM and 500 nM, 24 hours
T2 construct: effects of the compounds of the present disclosure on the expression of target proteins in cells; endogenous in cells; host or cells: human PBMCs (hPBMCs)
T2 sequence (Q13422 whole entry): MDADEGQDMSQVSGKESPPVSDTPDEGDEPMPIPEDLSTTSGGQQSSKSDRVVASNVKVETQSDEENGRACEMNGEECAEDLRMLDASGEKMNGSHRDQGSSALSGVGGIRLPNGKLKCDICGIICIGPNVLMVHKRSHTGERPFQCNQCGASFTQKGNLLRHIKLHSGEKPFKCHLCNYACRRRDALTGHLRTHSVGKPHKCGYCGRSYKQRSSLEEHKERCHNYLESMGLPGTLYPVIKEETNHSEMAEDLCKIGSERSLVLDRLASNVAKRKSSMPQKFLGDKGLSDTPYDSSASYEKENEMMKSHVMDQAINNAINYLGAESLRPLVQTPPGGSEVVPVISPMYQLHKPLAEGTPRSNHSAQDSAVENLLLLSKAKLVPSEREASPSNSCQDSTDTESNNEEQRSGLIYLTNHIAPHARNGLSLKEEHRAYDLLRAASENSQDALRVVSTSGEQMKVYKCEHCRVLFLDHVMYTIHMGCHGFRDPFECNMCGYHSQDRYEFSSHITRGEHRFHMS
T2 sequence (Q96SW2 whole entry): as the sequence (Q96SW2 whole entry) above
T2 sequence (Q16531 whole entry partner): as the sequence (Q16531 whole entry partner) above

IKZF2 = target: T3, IKZF2 (Homo sapiens, UniProt Q96SW2+Q9UKS7); assay: Western-blot assay, substrate protein degradation in hPBMCs: IKZF2; conditions: for substrate protein remaining % IKZF2: 24 hours of compound treatment, 50 nM and 500 nM; for IKZF2 substrate protein remaining %: compounds at 50 nM and 500 nM, 24 hours
T3 construct: effects of the compounds of the present disclosure on the expression of target proteins in cells; endogenous in cells; host or cells: human PBMCs (hPBMCs)
T3 sequence (Q9UKS7 whole entry): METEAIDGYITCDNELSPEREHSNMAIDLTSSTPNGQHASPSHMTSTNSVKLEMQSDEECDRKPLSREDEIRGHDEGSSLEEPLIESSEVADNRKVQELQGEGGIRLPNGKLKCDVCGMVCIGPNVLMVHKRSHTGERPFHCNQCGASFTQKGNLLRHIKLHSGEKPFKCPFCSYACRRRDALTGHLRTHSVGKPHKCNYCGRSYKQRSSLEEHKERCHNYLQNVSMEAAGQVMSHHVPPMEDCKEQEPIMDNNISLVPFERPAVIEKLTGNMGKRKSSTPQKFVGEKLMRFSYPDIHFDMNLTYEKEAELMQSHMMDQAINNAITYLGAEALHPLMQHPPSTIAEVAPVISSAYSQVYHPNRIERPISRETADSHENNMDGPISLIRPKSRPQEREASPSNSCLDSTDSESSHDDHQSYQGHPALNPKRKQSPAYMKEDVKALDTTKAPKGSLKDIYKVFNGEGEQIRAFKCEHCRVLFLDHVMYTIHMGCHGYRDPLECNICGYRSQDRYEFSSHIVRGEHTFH
T3 sequence (Q96SW2 whole entry): as the sequence (Q96SW2 whole entry) above
T3 sequence (Q16531 whole entry partner): as the sequence (Q16531 whole entry partner) above

IKZF3 = target: T4, IKZF3 (Homo sapiens, UniProt Q96SW2+Q9UKT9); assay: Western-blot assay, substrate protein degradation in hPBMCs: IKZF3; conditions: for substrate protein remaining % IKZF3: 24 hours of compound treatment, 50 nM and 500 nM; for IKZF3 substrate protein remaining %: compounds at 50 nM and 500 nM, 24 hours
T4 construct: effects of the compounds of the present disclosure on the expression of target proteins in cells; endogenous in cells; host or cells: human PBMCs (hPBMCs)
T4 sequence (Q9UKT9 whole entry): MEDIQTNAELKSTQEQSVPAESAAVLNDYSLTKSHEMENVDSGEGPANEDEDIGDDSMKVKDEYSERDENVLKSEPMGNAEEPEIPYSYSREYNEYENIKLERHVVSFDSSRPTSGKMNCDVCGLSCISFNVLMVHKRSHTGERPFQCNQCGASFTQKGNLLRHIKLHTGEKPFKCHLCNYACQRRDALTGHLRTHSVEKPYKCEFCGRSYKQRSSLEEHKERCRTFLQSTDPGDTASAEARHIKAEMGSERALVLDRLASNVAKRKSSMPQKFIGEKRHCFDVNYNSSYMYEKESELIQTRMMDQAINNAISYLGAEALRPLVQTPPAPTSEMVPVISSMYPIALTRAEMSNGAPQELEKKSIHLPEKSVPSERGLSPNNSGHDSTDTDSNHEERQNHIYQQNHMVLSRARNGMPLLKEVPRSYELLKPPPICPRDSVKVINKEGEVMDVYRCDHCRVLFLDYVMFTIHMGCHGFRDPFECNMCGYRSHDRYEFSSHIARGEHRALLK
T4 sequence (Q96SW2 whole entry): as the sequence (Q96SW2 whole entry) above
T4 sequence (Q16531 whole entry partner): as the sequence (Q16531 whole entry partner) above

CK1α = target: T5, CK1α (Homo sapiens, UniProt P48729+Q96SW2); assay: Western-blot assay, substrate protein degradation in hPBMCs: CK1α; conditions: for substrate protein remaining % CK1α: 24 hours of compound treatment, 50 nM and 500 nM; for CK1α substrate protein remaining %: compounds at 50 nM and 500 nM, 24 hours
T5 construct: effects of the compounds of the present disclosure on the expression of target proteins in cells; endogenous in cells; host or cells: human PBMCs (hPBMCs)
T5 sequence (P48729 whole entry): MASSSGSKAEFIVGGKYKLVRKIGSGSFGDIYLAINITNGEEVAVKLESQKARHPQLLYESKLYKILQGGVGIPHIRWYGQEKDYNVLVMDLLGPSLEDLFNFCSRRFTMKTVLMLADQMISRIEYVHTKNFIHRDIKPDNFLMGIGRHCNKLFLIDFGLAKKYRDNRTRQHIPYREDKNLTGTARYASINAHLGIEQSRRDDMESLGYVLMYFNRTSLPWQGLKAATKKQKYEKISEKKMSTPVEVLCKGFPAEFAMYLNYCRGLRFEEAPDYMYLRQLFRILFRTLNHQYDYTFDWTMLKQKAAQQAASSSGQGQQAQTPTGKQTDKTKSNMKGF
T5 sequence (Q96SW2 whole entry): as the sequence (Q96SW2 whole entry) above
T5 sequence (Q16531 whole entry partner): as the sequence (Q16531 whole entry partner) above

GSPT1 = target: T6, GSPT1 (Homo sapiens, UniProt P15170+Q96SW2); assay: Western-blot assay, substrate protein degradation in hPBMCs: GSPT1; conditions: for substrate protein remaining % GSPT1: 24 hours of compound treatment, 50 nM and 500 nM; for GSPT1 substrate protein remaining %: compounds at 50 nM and 500 nM, 24 hours
T6 construct: effects of the compounds of the present disclosure on the expression of target proteins in cells; endogenous in cells; host or cells: human PBMCs (hPBMCs)

| Structure (SMILES) | substrate protein remaining % WEE1 (WEE1) | WEE1 substrate protein remaining % (WEE1) | substrate protein remaining % IKZF1 (IKZF1) | IKZF1 substrate protein remaining % (IKZF1) | substrate protein remaining % IKZF2 (IKZF2) | IKZF2 substrate protein remaining % (IKZF2) | substrate protein remaining % IKZF3 (IKZF3) | IKZF3 substrate protein remaining % (IKZF3) | substrate protein remaining % CK1α (CK1α) | CK1α substrate protein remaining % (CK1α) | substrate protein remaining % GSPT1 (GSPT1) | GSPT1 substrate protein remaining % (GSPT1) |
| --- | --- | --- | --- | --- | --- | --- | --- | --- | --- | --- | --- | --- |
| O=C1CCN(N2Cc3cc(CN4CCN(c5nccc(I)c5F)CC4)ccc3C2=O)C(=O)N1 [GT-05406, 1-(5-((4-(3-fluoro-4-iodopyridin-2-yl)piperazin-1-yl)methyl)-1-oxoisoindolin-2-yl)dihydropyrimidine-2,4(1H,3H)-dione] | B (80%< substrate protein remaining %≤ 100%) | A ("A" is defined as 0% ≤ substrate protein remaining % ≤ 80%) | B (80%< substrate protein remaining %≤ 100%) | B ("B" is defined as 80%< substrate protein remaining %≤ 100%) | B (80%< substrate protein remaining %≤ 100%) | A ("A" is defined as 0% ≤ substrate protein remaining % ≤ 80%) | B (80%< substrate protein remaining %≤ 100%) | B ("B" is defined as 80%< substrate protein remaining %≤ 100%) | B (80%< substrate protein remaining %≤ 100%) | B ("B" is defined as 80%< substrate protein remaining %≤ 100%) | A (0% ≤ substrate protein remaining % ≤ 80%) | A ("A" is defined as 0% ≤ substrate protein remaining % ≤ 80%) |
| O=C1CCN(N2Cc3cc(CN4CCN(c5nccc(Cl)c5Br)CC4)ccc3C2=O)C(=O)N1 [GT-05432, 1-(5-((4-(3-bromo-4-chloropyridin-2-yl)piperazin-1-yl)methyl)-1-oxoisoindolin-2-yl)dihydropyrimidine-2,4(1H,3H)-dione] | A (0% ≤ substrate protein remaining % ≤ 80%) | A ("A" is defined as 0% ≤ substrate protein remaining % ≤ 80%) | B (80%< substrate protein remaining %≤ 100%) | B ("B" is defined as 80%< substrate protein remaining %≤ 100%) | B (80%< substrate protein remaining %≤ 100%) | B ("B" is defined as 80%< substrate protein remaining %≤ 100%) | B (80%< substrate protein remaining %≤ 100%) | B ("B" is defined as 80%< substrate protein remaining %≤ 100%) | B (80%< substrate protein remaining %≤ 100%) | B ("B" is defined as 80%< substrate protein remaining %≤ 100%) | A (0% ≤ substrate protein remaining % ≤ 80%) | B ("B" is defined as 80%< substrate protein remaining %≤ 100%) |
| O=C1CCN(N2Cc3cc(CN4CCN(c5ncc(C(F)(F)F)cc5Cl)CC4)ccc3C2=O)C(=O)N1 [GT-05433, 1-(5-((4-(3-chloro-5-(trifluoromethyl)pyridin-2-yl)piperazin-1-yl)methyl)-1-oxoisoindolin-2-yl)dihydropyrimidine-2,4(1H,3H)-dione] | A (0% ≤ substrate protein remaining % ≤ 80%) | A ("A" is defined as 0% ≤ substrate protein remaining % ≤ 80%) | B (80%< substrate protein remaining %≤ 100%) | B ("B" is defined as 80%< substrate protein remaining %≤ 100%) | A (0% ≤ substrate protein remaining % ≤ 80%) | B ("B" is defined as 80%< substrate protein remaining %≤ 100%) | B (80%< substrate protein remaining %≤ 100%) | B ("B" is defined as 80%< substrate protein remaining %≤ 100%) | B (80%< substrate protein remaining %≤ 100%) | B ("B" is defined as 80%< substrate protein remaining %≤ 100%) | A (0% ≤ substrate protein remaining % ≤ 80%) | A ("A" is defined as 0% ≤ substrate protein remaining % ≤ 80%) |
| O=C1CCN(N2Cc3cc(CN4CCN(c5cccnc5)CC4)ccc3C2=O)C(=O)N1 [GT-05434, 1-(1-oxo-5-((4-(pyridin-3-yl)piperazin-1-yl)methyl)isoindolin-2-yl)dihydropyrimidine-2,4(1H,3H)-dione] | A (0% ≤ substrate protein remaining % ≤ 80%) | A ("A" is defined as 0% ≤ substrate protein remaining % ≤ 80%) | B (80%< substrate protein remaining %≤ 100%) | B ("B" is defined as 80%< substrate protein remaining %≤ 100%) | A (0% ≤ substrate protein remaining % ≤ 80%) | B ("B" is defined as 80%< substrate protein remaining %≤ 100%) | B (80%< substrate protein remaining %≤ 100%) | B ("B" is defined as 80%< substrate protein remaining %≤ 100%) | A (0% ≤ substrate protein remaining % ≤ 80%) | B ("B" is defined as 80%< substrate protein remaining %≤ 100%) | A (0% ≤ substrate protein remaining % ≤ 80%) | A ("A" is defined as 0% ≤ substrate protein remaining % ≤ 80%) |
| O=C1CCN(N2Cc3cc(CN4CCN(c5ccc(Cl)nc5)CC4)ccc3C2=O)C(=O)N1 [GT-05435, 1-(5-((4-(6-chloropyridin-3-yl)piperazin-1-yl)methyl)-1-oxoisoindolin-2-yl)dihydropyrimidine-2,4(1H,3H)-dione] | – | A ("A" is defined as 0% ≤ substrate protein remaining % ≤ 80%) | – | B ("B" is defined as 80%< substrate protein remaining %≤ 100%) | – | B ("B" is defined as 80%< substrate protein remaining %≤ 100%) | – | B ("B" is defined as 80%< substrate protein remaining %≤ 100%) | – | B ("B" is defined as 80%< substrate protein remaining %≤ 100%) | – | A ("A" is defined as 0% ≤ substrate protein remaining % ≤ 80%) |
| O=C1CCN(N2Cc3cc(CN4CCN(c5cncc(Cl)c5Cl)CC4)ccc3C2=O)C(=O)N1 [GT-05436, 1-(5-((4-(4,5-dichloropyridin-3-yl)piperazin-1-yl)methyl)-1-oxoisoindolin-2-yl)dihydropyrimidine-2,4(1H,3H)-dione] | A (0% ≤ substrate protein remaining % ≤ 80%) | A ("A" is defined as 0% ≤ substrate protein remaining % ≤ 80%) | B (80%< substrate protein remaining %≤ 100%) | B ("B" is defined as 80%< substrate protein remaining %≤ 100%) | B (80%< substrate protein remaining %≤ 100%) | B ("B" is defined as 80%< substrate protein remaining %≤ 100%) | B (80%< substrate protein remaining %≤ 100%) | B ("B" is defined as 80%< substrate protein remaining %≤ 100%) | B (80%< substrate protein remaining %≤ 100%) | B ("B" is defined as 80%< substrate protein remaining %≤ 100%) | A (0% ≤ substrate protein remaining % ≤ 80%) | A ("A" is defined as 0% ≤ substrate protein remaining % ≤ 80%) |
| O=C1CCN(N2Cc3cc(CN4CCN(c5ccncc5)CC4)ccc3C2=O)C(=O)N1 [GT-05437, 1-(1-oxo-5-((4-(pyridin-4-yl)piperazin-1-yl)methyl)isoindolin-2-yl)dihydropyrimidine-2,4(1H,3H)-dione] | B (80%< substrate protein remaining %≤ 100%) | – | B (80%< substrate protein remaining %≤ 100%) | – | B (80%< substrate protein remaining %≤ 100%) | – | B (80%< substrate protein remaining %≤ 100%) | – | B (80%< substrate protein remaining %≤ 100%) | – | A (0% ≤ substrate protein remaining % ≤ 80%) | – |
| Cc1cc(N2CCN(Cc3ccc4c(c3)CN(N3CCC(=O)NC3=O)C4=O)CC2)ccn1 [GT-05438, 1-(5-((4-(2-methylpyridin-4-yl)piperazin-1-yl)methyl)-1-oxoisoindolin-2-yl)dihydropyrimidine-2,4(1H,3H)-dione] | A (0% ≤ substrate protein remaining % ≤ 80%) | – | A (0% ≤ substrate protein remaining % ≤ 80%) | – | B (80%< substrate protein remaining %≤ 100%) | – | A (0% ≤ substrate protein remaining % ≤ 80%) | – | A (0% ≤ substrate protein remaining % ≤ 80%) | – | A (0% ≤ substrate protein remaining % ≤ 80%) | – |
